# Experimental data published in patent US20100093861A1, “TREATMENT OF INSULIN RESISTANCE OR DISEASES ASSOCIATED WITH INSULIN RESISTANCE” (Stevia ApS, priority 2006, published 2010).
# Experiments:
# [1] = test system: Beta2/neuroD; experiment: Relative real time RT-PCR in islets of KKAy mice (Example 3): Beta2/neuroD; assay type: in vivo; settings: 9 weeks, normalized to 18S rRNA
# Protocol: (§1) Islets were isolated by the collagenase digestion technique. In brief, the animals were anesthetized with pentobarbital (50 mg/kg intraperitoneally) and midline laparotomy was performed. The pancreas was retrogradely filled with 3 mL ice-cold Hanks balanced salt solution (([HBSS] Sigma Chemical, St Louis, Mo.) supplemented with 0.3 mg/ml collagenase Boehringer Mannheim GmbH, Germany). The pancreas was subsequently removed and incubated for 19 minutes at 37° C. After rinsing in HBSS, the islets were handpicked under a stereomicroscope and immediately transferred to a tubes containing 1 ml Trizol (Gibco/Invitrogene, Calsbad, Calif., USA). The islets isolated from the NMRI mice were incubated overnight at 37° C. and 95% normal atmosphere/5% CO2 in 10 ml RPMI 1640 containing 11.1 mmol/L glucose supplemented with penicillin G and 100 μg/mL streptomycin (all Gibco/Invitrogene, Calsbad, Calif., USA).
# (§2) For each group, islets from 3-4 mice (180-200 islets) were pooled in 1 ml Trizol reagent (Gibco/lnvitrogene, Calsbad, Calif., USA) before RNA purification. Total RNA was extracted according to the manufactures' instructions. RNA was quantified by measuring absorbance at 260 and 280 nm. The quality of the RNA was checked by the Agilent 2100 bioanalyzer (Agilent, Santa Clara, USA). […]
# [2] = test system: isolated NMRI mice islets; experiment: Glucose stimulated insulin secretion (GSIS) from isolated NMRI mice islets; assay type: cell-based
# Protocol: For in vitro studies with steviol and ISV, we included adult female NMRI mice (Taconic, Ry Denmark), all weighing 22-25 g. We used 12 hours light/dark cycle. The Danish Council for Animal experiments has approved the study.
# as §1
# The NMRI female mice islets were rinsed twice with a modified Krebs-Ringer buffer (KRB) supplemented with 3.3 mmol/L glucose and 0.1% human serum albumin (Sigma). The KRB contained 125 mmol/L NaCl, 5.9 mmol/L KCl, 1.2 MgCl, 1.28 CaCl2 and 25 mmol/L HEPES (Ph 7.4: all Sigma). Single islets were incubated in 100 μL KRB containing glucose (3.3 and 16.7 mmol/L) and steviol/ISV according to the protocols (Jeppesen et al., 2000). After incubation (60 min), 50 μL of the medium was frozen for RIA analysis of insulin.
# [3] = test system: C/EBP-alpha; experiment: Gene expression in islets from diabetic KKAy-mice, real time RT-PCR (Example 2): C/EBP-alpha; assay type: in vivo; settings: islets of KKAy-mice after nine weeks treatment, normalized to 18S rRNA
# Protocol: (§3) A the end of the nine week period of the in vivo study in example 1 RNA was purified from Islets, muscle, liver and fat from the three experimental groups, using standard techniques as described in Kiergen, RNA easy.
# (§4) Gene expression of PDX-1, IRS1, Beta2, 11beta-HSD-1, Akt1, C/EBP-alpha, CPT1, GLUT2, IGF1, IR and Ins1 was measured with Real time RT-PCR using Taq Man Assays normalized to 18S rRNA, using the standard protocol (ABI, USA). All reagents were obtained from (ABI, USA). All probes are standard probes obtainable from ABI, USA, under the specific probe code number, given in respect of each gene.
# [4] = test system: Beta2; experiment: Gene expression in islets from diabetic KKAy-mice, real time RT-PCR (Example 2): Beta2; assay type: in vivo; settings: islets of KKAy-mice after nine weeks treatment, normalized to 18S rRNA
# Protocol: as §3, §4
# [5] = test system: GLUT2; experiment: Relative real time RT-PCR in islets of KKAy mice (Example 3): GLUT2; assay type: in vivo; settings: 9 weeks
# Protocol: as §1, §2
# [6] = test system: GLUT-2; experiment: Gene expression in islets from diabetic KKAy-mice, real time RT-PCR (Example 2): GLUT-2; assay type: in vivo; settings: islets of KKAy-mice after nine weeks treatment, normalized to 18S rRNA
# Protocol: as §3, §4
# [7] = test system: Beta2/neuroD; experiment: Affymetrix gene chip analysis of KKAy islets: Beta2/neuroD; assay type: in vivo, mice; settings: ISV vs. KKAy control islets, 9 weeks
# Protocol: (§5) cRNA preparation and in vitro transcription: In total 6 Affymetrix arrays MOE430 2.0 probe array cartridge were used i.e. for analysis of 3 replicas for the KKAy control group and the ISV group, respectively. Each of the 6 samples consisted of pooled RNA from 3-4 KKAy mice. Preparation of target for hybridization was prepared from 340 ng of total RNA using MessageAmp™ II aRNA Amplification Kits (Ambion), according to the manufacturers instructions. Arrays were hybridised and scanned as described elsewhere (Kruhoffer et al., 2005).
# [8] = test system: InsI; experiment: Affymetrix gene chip analysis of KKAy islets: InsI; assay type: in vivo, mice; settings: ISV vs. KKAy control islets, 9 weeks
# Protocol: as §5
# [9] = test system: PDX-1; experiment: Gene expression in islets from diabetic KKAy-mice, real time RT-PCR (Example 2): PDX-1; assay type: in vivo; settings: islets of KKAy-mice after nine weeks treatment, normalized to 18S rRNA
# Protocol: as §3, §4
# [10] = test system: 11-beta-HSD-1; experiment: Affymetrix gene chip analysis of KKAy islets: 11-beta-HSD-1; assay type: in vivo, mice; settings: ISV vs. KKAy control islets, 9 weeks
# Protocol: as §5
compound,measurement,setting,value
"C[C@@]12CC[C@@H]3[C@@](CC[C@H]4[C@@]3(C)CCC[C@@]4(C)C(=O)O)(CC1=O)C2 (single isomer, unassigned; ent-16) [ISV, ent-16-ketobeyeran-19-oic acid]","increased expression of Beta2/neuroD, ISV group vs. control group",[1],60%
same,effect on insulin secretion at low glucose,"[2]; 3.3 mmol/L glucose, 60 min incubation",did not potentiate the insulin secretion
same,concentration giving apparent maximal effect on glucose stimulated insulin secretion,"[2]; 16.7 mmol/L glucose, 60 min incubation",approx. 10^−8 mol/l
same,"potency on GSIS, isosteviol compared with steviol, at higher concentration","[2]; 10^−8 mol/l-10^−6 mol/l, 16.7 mmol/l glucose, 60 minutes",not found any significant difference
same,"potency on GSIS, isosteviol compared with steviol, at low concentration","[2]; 10^−10 mol/l, 16.7 mmol/l glucose, 60 minutes",significantly more potent than steviol
same,effect on insulin secretion stimulated by 16.7 mmol/L glucose,"[2]; ISV 10^−12 mol/l-10^−8 mol/l, 60 min incubation",potentiated insulin secretion
same,decreased expression of C/EBPα compared to standard diet,[3],49%
same,increased expression of beta2 compared to standard diet,[4],60%
same,up regulation of the GLUT2 gene transcript,[5]; RT-PCR,more than 3 fold
same,"increased expression of GLUT2, ISV group vs. control group",[5]; normalized to 18S rRNA,201%
same,increased expression of GLUT-2 compared to standard diet,[6],60%
same,array: change of Beta2/neuroD expression,[7],upregulation
same,array: change of InsI expression,[8],did not show any statistical significant increase
same,increased expression of PDX-1 compared to standard diet,[9],96%
same,array: change of 11-beta-HSD-1 expression,[10],down regulation
